# Experimental data published in patent US5773423A (priority 1994, dated 1998).
# “Also recorded” adds a separate entry of the source. Where two headings read alike, the source gives them in different places.
# Assays:
# [1] = biological target: T1, rat brain A1 receptors (Rattus norvegicus, UniProt P25099); assay: Displacement of [125I]APNEA binding in rat brain membranes; conditions: read-out: IC50 vs. displacement of specific binding of [125I]APNEA, Ki (A1) column of Table 2, footnote f
# T1 construct: in rat brain membranes; from tissue; host or cells: rat brain membranes
# T1 sequence (P25099 1-326): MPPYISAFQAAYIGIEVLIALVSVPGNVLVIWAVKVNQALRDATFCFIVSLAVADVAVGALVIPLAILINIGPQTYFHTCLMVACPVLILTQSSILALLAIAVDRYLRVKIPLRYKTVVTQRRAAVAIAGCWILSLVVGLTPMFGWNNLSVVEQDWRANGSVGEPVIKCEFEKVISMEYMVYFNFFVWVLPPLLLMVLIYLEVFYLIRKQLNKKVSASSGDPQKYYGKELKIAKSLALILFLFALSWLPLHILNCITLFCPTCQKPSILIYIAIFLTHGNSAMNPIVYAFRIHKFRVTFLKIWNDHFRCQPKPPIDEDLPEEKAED
# [2] = test system: spontaneous seizures in gerbils; assay: Spontaneous seizures in gerbils on immersion in water maze; format: in vivo, gerbil
# Procedure: During the studies of behavioural responses of gerbils to adenosine receptor stimulation, animals were exposed to the water maze model of spatial learning and memory. The control group (n=15) was injected with the vehicle given i.p. for 6 weeks prior to water maze tests. Twenty-four hours after the last injection, animals were exposed to the swim task. Immersion of animals in the swim tank whose water was kept at 32° C. produced an immediate, long-lasting (up to 2 min) seizure complex that was presented as myoclonic convulsions, followed by a period of rigidity and hind-limb extension.
# [3] = test system: phospholipase C; conditions: acute administration; 'it is known'; cited from earlier work
# [4] = test system: injection-induced anxiety in mice; assay: Anxiolytic effect in C57BL/J mice (responses to handling); format: in vivo, mouse (C57BL/J); conditions: chronic, 100 μg/kg
# [5] = test system: electroconvulsive shock in mice; format: in vivo
# [6] = test system: NMDA-evoked seizures in mice; format: in vivo
# [7] = test system: spatial memory in gerbils; assay: Learning and memory in gerbils (Morris water maze) and open field; format: in vivo, gerbil; conditions: chronic
# [8] = Basal or systemic blood pressure (chronic use, malignant hypotension); format: in vivo
# [9] = test system: forebrain ischemia in gerbils; assay: Forebrain ischemia in gerbils (bilateral carotid occlusion); format: in vivo, Mongolian gerbil
# Procedure: Ischemia was effected by bilateral occlusion of the carotid arteries. Control gerbils were injected with saline (0.15 ml, i.p. for 10 days). During postischemic recovery, the rate of cerebral blood flow return to pre-ischemia level, neurological status, and survival were monitored. After 7 days, all surviving animals were perfused with formaldehyde for further studies of morphology and histochemistry.
# [10] = biological target: T2, adenosine uptake sites in rat brain membranes (Rattus norvegicus, UniProt O54698); assay: Competition for [3H]NBTI binding at adenosine uptake sites in rat striatal membranes; conditions: read-out: Ki (NBTI); 0.3 nM [3H]NBTI, 30 min at 23° C., pH 7.4
# T2 sequence (O54698 1-457): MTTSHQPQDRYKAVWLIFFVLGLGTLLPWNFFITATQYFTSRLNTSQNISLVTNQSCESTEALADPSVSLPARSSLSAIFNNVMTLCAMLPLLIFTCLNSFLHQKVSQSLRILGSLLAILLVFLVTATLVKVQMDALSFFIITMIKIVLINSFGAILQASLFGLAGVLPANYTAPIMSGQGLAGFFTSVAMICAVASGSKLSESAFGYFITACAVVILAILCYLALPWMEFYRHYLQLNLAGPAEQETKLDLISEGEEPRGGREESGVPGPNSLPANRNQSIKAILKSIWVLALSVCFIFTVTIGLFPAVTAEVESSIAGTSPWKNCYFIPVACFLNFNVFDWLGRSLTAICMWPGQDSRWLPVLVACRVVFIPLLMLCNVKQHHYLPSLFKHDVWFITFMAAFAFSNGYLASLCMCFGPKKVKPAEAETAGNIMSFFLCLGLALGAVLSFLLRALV
# [11] = Rectal temperature of mice under light halothane anesthesia; conditions: 100 μg/kg acute (15 min) or chronic (24 h after last injection)
# [12] = test system: cardiovascular parameters in rats; format: in vivo, rat
# Procedure: Rats (each weighing 300-340 g) were lightly anesthetized using 1.5-2% halothane. They were monitored for heart rate with a tail sensor and blood pressure using the tail cuff method. Peripheral blood flow (scalp) was monitored using a Perimed laser Doppler blood flow apparatus, with a narrow diameter probe placed in contact with the shaved skin above the center of the cranium. A small amount of clear gel was applied to maintain uniform transmission of light. Body temperature was measured using a rectal probe. Respiratory rate was also recorded. Measurements were made at regular intervals: every 2 min for the first ten min period, and every five min thereafter, until 30 min, at which time a 30 min interval was used, until 90 min. […] Drugs were dissolved in a vehicle consisting of an 80:20 mixture of Alkamuls EL-620 and saline, pH 7.4. […] When administered alone, the agonist was given at the beginning of the monitoring period. When coadministered with an antagonist, the antagonist was given at the beginning of the monitoring period, and the agonist was given after 10 min.
# [13] = test system: locomotor activity in mice; assay: Locomotor activity in mice (open field, Digiscan activity monitor); format: in vivo, mouse (NIH Swiss)
# [14] = test system: pentamethylenetetrazole-induced convulsions in mice; format: in vivo
# [15] = biological target: T2, adenosine uptake sites in rat brain membranes; set-up: Rat striatal membranes, prepared as above; from tissue; host or cells: rat striatal membranes; conditions: read-out: Kd value used for [3H]NBTI Ki calculation; cited from earlier work
# [16] = acute IB-MECA 10 μg/kg + NMDA 60 mg/kg, NS
# [17] = acute IB-MECA 50 μg/kg + NMDA 60 mg/kg, NS
# [18] = acute IB-MECA 100 μg/kg + NMDA 60 mg/kg
# [19] = acute IB-MECA 100 μg/kg + NMDA 60 mg/kg, P<0.05
# [20] = chronic IB-MECA 100 μg/kg + NMDA 60 mg/kg, P<0.05
# [21] = acute, 15 min prior to 10 min ischemia
# [22] = chronic 10 days, 10 min ischemia
# [23] = acute IB-MECA 100 μg/kg + PMT 75 mg/kg
# [24] = acute IB-MECA 100 μg/kg + PMT 75 mg/kg, P<0.05
# [25] = chronic IB-MECA 100 μg/kg + PMT 75 mg/kg
# [26] = chronic IB-MECA 100 μg/kg + PMT 75 mg/kg, P<0.05
structure (smiles),measurement,setting,value
"Nc1ccc(CCNc2ncnc3c2ncn3[C@@H]2O[C@H](CO)[C@@H](O)[C@H]2O)cc1I [[^125 I]APNEA, [^125 I]N^6-2-(4-aminophenyl)ethyladenosine]",IC50,[1],2.1 nM
"CNC(=O)[C@H]1O[C@@H](n2cnc3c(NCc4cccc(I)c4)ncnc32)[C@H](O)[C@@H]1O [Compound 42, N^6-(3-iodobenzyl)adenosine-5'-N-methyluronamide]",seizing activity (in words),[2]; acute,worsen the seizing activity
same,seizing activity during swim task (in words),"[2]; chronic, 100 μg/kg i.p. daily for 6 wks",entirely eliminated seizing activity
same,"stimulation of phospholipase C and inositol 1,4,5-triphosphate production (in words)",[3],"stimulation of phospholipase C and an enhanced production of inositol 1,4,5-triphosphate"
same,injection-induced anxiety or stress responses (in words),[4],almost no injection-induced anxiety or stress behavioral responses
same,electroshock threshold voltage (in words),[5]; acute IB-MECA,insignificant increase of threshold voltage
same,% Mortality at 24 h,[5]; acute IB-MECA 100 μg/kg + E.S.,70%
same,Threshold voltage,[5]; acute IB-MECA 100 μg/kg + E.S.,106 + 10
same,electroshock threshold voltage / postictal mortality (in words),[5]; chronic IB-MECA,no significant changes in threshold voltage; also recorded: postictal mortality was significantly reduced
same,Threshold voltage,[5]; chronic IB-MECA 100 μg/kg + E.S.,118 + 13
same,% Mortality at 24 h,"[5]; chronic IB-MECA 100 μg/kg + E.S., p<0.05",30%
same,incidence of seizures or degree of neurological impairment (in words),[6]; acute IB-MECA 10 μg/kg + NMDA 60 mg/kg,"no effect on either the incidence of seizures, or the degree of neurological impairment"
same,% Convulsing,[6]; [16],50%
same,% Mortality at 24 h,[6]; [16],50%
same,Impairment (scale 1-6),[6]; [16],2.7 + 0.6
same,Ave. Latency to Seizures,"[6]; acute IB-MECA 10 μg/kg + NMDA 60 mg/kg, P<0.05",581 + 107 sec
same,% Mortality at 24 h,[6]; [17],27%
same,Impairment (scale 1-6),[6]; [17],2.0 + 0.5
same,% Convulsing,"[6]; acute IB-MECA 50 μg/kg + NMDA 60 mg/kg, P<0.05",10%
same,Ave. Latency to Seizures,"[6]; acute IB-MECA 50 μg/kg + NMDA 60 mg/kg, only one animal",12 s
same,% Convulsing,[6]; [18],0%
same,clinically manifested seizures (in words),[6]; [18],completely absent
same,duration of lethargic behaviour,[6]; [18],45 to 60 min
same,% Mortality at 24 h,[6]; [19],10%
same,Impairment (scale 1-6),[6]; [19],1.4 + 0.4
same,animals with tonic seizures,[6]; chronic IB-MECA 100 μg/kg + NMDA 60 mg/kg,20%
same,% Convulsing,[6]; [20],30%
same,Ave. Latency to Seizures,[6]; [20],689 + 108 sec
same,Impairment (scale 1-6),[6]; [20],1.8 + 0.4
same,locomotor behavior in open field (in words),[7],did not show any significant differences in locomotor behavior
same,average time to target,"[7]; 100 μg/kg daily for 2 months, p<0.04 vs controls 40 sec",30 s
same,basal or systemic blood pressure after administration,[8]; from about 70 mm Hg,about 90 mm Hg
same,increase in basal or systemic blood pressure,[8]; in vivo,10-30%
same,postischemic effect (in words),"[9]; acute (15 min) or chronic (10 days), 100 μg/kg, listed as IB-MECA","impairment of postischemic cortical blood flow rate, increased mortality rate, and extensive neuronal destruction in the hippocampus; also recorded: improved post-ischemic blood reflow, increased survival"
same,surviving hippocampal neurons,"[9]; acute (15 min), 10 min ischemia, 100 μg/kg",about 30%
same,survival for 7 days,"[9]; acute, 100 μg/kg i.p. 15 min prior to 10 min ischemia",Ten percent
same,animals with irreversible coma,"[9]; acute, 10 min ischemia",40%
same,animals with seizures,"[9]; acute, 10 min ischemia",60%
same,mortality within 12 hr post-ischemia,[9]; [21],90%
same,time to full recovery of post-ischemic blood flow,[9]; [21],over 3.5 hr
same,end-point mortality,"[9]; acute, repeated experiment, FIG. 6, p<0.01",90%
same,neurological side effects without ischemia (in words),[9]; acutely and chronically treated,No neurological side effects were observed
same,animals with mild hyperactivity,[9]; [22],40%
same,survival for 7 days (in words),[9]; [22],All those gerbils
same,time to full recovery of post-ischemic blood flow,[9]; [22],about 90 min
same,survival for 7 days,"[9]; chronic 10 days, 20 min ischemia",90%
same,surviving hippocampal neurons,"[9]; chronic (10 days), 10 min ischemia, 100 μg/kg",> 80%
same,survival,"[9]; chronic, repeated experiment, FIG. 6, p<0.01",90%
same,Ki,[10],28200 nM
same,rectal temperature (in words),[11],no significant temperature differences
same,duration of hypotensive effect,[12]; 0.1 mg/kg,90 min
same,blood flow and respiratory rates (in words),[12]; 0.1 mg/kg i.p.,not significant
same,blood pressure (in words),[12]; 0.1 mg/kg i.p.,lowering of the blood pressure
same,heart rate (in words),[12]; 0.1 mg/kg i.p.,little effect on heart rate
same,drop in body temperature,"[12]; 0.1 mg/kg i.p., after about 30 min post-injection",approximately 0.5 °C
same,onset of hypotensive effect,"[12]; 0.1 mg/kg, post-injection",≤ 2 min
same,reduction in locomotor activity at chosen dose,"[13]; APEC 16 μg/kg, 3-IB-MECA 100 μg/kg i.p.",ca. 50%
same,minimal effective dose,"[13]; Mus musculus, ip, read-out: threshold dose for locomotor depression",0.01 mg/kg
same,dose of maximal locomotor depression,[13]; i.p.,about 0.1 mg/kg
same,scratching behavior (in words),[13]; i.p.,rapid scratching behavior
same,locomotor measures (in words),"[13]; i.p., listed as 3-IB-MECA","Vertical activity, stereotype counts, and rotational movement were depressed in a dose-dependent manner; also recorded: average distance per move and average speed were not changed significantly"
same,plateau of locomotor depression below control level,"[13]; total distance traveled, higher doses",ca. 60%
same,onset of seizures and overall mortality after PMT (in words),[14]; acute IB-MECA,significantly reduced
same,Impairment,[14]; [23],4.1 + 0.5
same,Mortality 0.4-5 h,[14]; [23],0%
same,Mortality <15 min,[14]; [23],40%
same,Mortality >5 h,[14]; [23],10%
same,Mortality Overall,[14]; [24],50%
same,Onset of convulsive behavior,[14]; [24],112 s
same,Mortality 0.4-5 h,[14]; [25],10%
same,Mortality <15 min,[14]; [25],40%
same,Mortality >5 h,[14]; [25],0%
same,Onset of convulsive behavior,[14]; [25],120 s
same,Impairment,[14]; [26],3.3 + 0.5
same,Mortality Overall,[14]; [26],50%
same,onset of seizures or neurological impairment after PMT (in words),[14]; chronic IB-MECA + PMT 75 mg/kg,no significant effect on either the onset of seizures or neurological impairment
O=[N+]([O-])c1ccc(CSc2ncnc3c2ncn3[C@@H]2O[C@H](CO)[C@@H](O)[C@H]2O)cc1 [[^3 H]NBTI],Kd,[15],0.15 nM
